Source: patent US9255080B2, “Quinazolinedione derivatives as PARP inhibitors” (Janssen Pharmaceutica NV, priority 2004, dated 2016)

Biological target: PARP-1 enzyme (Homo sapiens, UniProt P09874)
Experiment: In vitro filtration assay for PARP-1 inhibitory activity
Type: biochemical
Conditions: not given
Procedure: In Vitro Filtration Assay for PARP-1 Inhibitory Activity
Compounds of the present invention were tested in an in vitro filtration assay assessing PARP-1 activity (triggered in the presence of nicked DNA) by means of its histone poly (ADP-ribosyl)ation activity using [^32P]-NAD as ADP-ribosyl donor. The radioactive ribosylated histones were precipitated by trichloroacetic acid (TCA) in 96-well filterplates and the incorporated [^32P] measured using a scintillation counter
A mixture of histones (stock solution: 5 mg/ml in H2O), NAD^+ (stock solution: 100 mM in H2O), and [^32P]-NAD^+ in incubation buffer (50 mM Tris/HCl, pH 8; 0.2 mM DTT; 4 mM MgCl2) was made. A mixture of the PARP-1 enzyme (5-10 μg/ml) and nicked DNA was also made. The nicked DNA was prepared as described in the in vitro SPA for PARP-1 inhibitory activity. Seventy-five μl of the PARP-1 enzyme/DNA mixture together with 1 μl of compound in DMSO and 25 μl of histones-NAD^+/[^32P]-NAD^+ mixture was added per well of a 96-well filterplate (0.45 μm, supplier Millipore). The final concentrations in the incubation mixture were 2 μg/ml for the histones, 0.1 mM for the NAD^+, […] (0.5 μC) for the [^32P]-NAD^+ and 2 μg/ml for the nicked DNA. Plates were incubated for 15 min. at room temperature and the reaction was terminated by the addition of 10 μl ice cold 100% TCA followed by the addition of 10 μl ice-cold BSA solution (1% in H2O). The protein fraction was allowed to precipitate for 10 min. at 4° C. and plates were vacuum filtered. The plates were subsequently washed with, for each well, 1 ml of 10% ice cold TCA, 1 ml of 5% ice cold TCA and 1 ml of 5% TCA at room temperature. Finally 100 μl of scintillation solution (Microscint 40, Packard) was added to each well and the plates were transferred to a TopCountNXT™ (supplier: Packard) for scintillation counting and values were expressed as counts per minute (cpm). For each experiment, controls (containing PARP-1 enzyme and DMSO without compound), a blank incubation (containing DMSO but no PARP-1 enzyme or compound) and samples (containing PARP-1 enzyme and compound dissolved in DMSO) were run in parallel. All compounds tested were dissolved and eventually further diluted in DMSO. In first instance, compounds were tested at a concentration of 10^−5M. […] In each test, the blank value was subtracted from both the control and the sample values. The control sample represented maximal PARP-1 enzyme activity. For each sample, the amount of cpm was expressed as a percentage of the mean cpm value of the controls. […] Herein the effects of test compounds are expressed as pIC50 (the negative log value of the IC50-value).

PARP-1 enzyme, sequence (P09874 whole entry): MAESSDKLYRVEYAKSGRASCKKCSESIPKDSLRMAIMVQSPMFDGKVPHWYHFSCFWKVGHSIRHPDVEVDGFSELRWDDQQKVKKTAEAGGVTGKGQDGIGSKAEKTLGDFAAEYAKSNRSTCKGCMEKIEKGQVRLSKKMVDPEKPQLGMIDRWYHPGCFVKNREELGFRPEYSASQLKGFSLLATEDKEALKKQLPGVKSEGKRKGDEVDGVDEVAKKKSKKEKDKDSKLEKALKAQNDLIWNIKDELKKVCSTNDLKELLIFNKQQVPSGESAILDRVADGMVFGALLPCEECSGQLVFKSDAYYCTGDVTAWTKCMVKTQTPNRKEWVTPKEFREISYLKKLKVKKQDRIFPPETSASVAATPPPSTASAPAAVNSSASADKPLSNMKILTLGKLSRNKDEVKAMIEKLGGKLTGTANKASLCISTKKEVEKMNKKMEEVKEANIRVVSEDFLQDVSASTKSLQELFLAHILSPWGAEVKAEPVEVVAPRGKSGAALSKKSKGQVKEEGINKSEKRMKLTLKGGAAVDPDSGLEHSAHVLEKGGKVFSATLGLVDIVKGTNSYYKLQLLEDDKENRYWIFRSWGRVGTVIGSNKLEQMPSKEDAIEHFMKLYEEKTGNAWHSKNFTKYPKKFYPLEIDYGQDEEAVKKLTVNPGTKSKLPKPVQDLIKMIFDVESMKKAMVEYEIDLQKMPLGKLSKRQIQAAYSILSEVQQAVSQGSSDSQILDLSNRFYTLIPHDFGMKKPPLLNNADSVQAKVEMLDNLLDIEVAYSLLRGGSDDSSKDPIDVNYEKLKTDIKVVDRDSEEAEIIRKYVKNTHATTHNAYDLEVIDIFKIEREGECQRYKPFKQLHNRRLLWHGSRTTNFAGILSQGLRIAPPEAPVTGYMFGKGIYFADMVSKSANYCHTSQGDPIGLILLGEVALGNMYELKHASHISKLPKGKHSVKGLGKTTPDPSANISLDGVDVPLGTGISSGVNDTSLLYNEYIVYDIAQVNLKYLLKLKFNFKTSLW

| SMILES | IC50 [nM] |
| --- | --- |
| O=c1[nH]c(=O)n(CCCN2CCC(c3c[nH]c4ccccc34)CC2)c2ccccc12 [Compound 3] | 1030 |

Same assay, conditions: [32P]-NAD, histones, nicked DNA; read-out: in vitro filter assay PARP-1 pIC50 (converted)

| IC50 [nM] | SMILES |
| --- | --- |
| 2180 | O=c1[nH]c(=O)n(C2CCN(CC(O)C3CCc4ccccc4O3)CC2)c2ccccc12 (stereo in doubt) [Compound 9, 1-[1-[(2S)-2-[(2R)-3,4-dihydro-2H-1-benzopyran-2-yl]-2-hydroxyethyl]-4-piperidinyl]-2,4(1H,3H)-quinazolinedione] |
| 1570 | O=C(CCCN1CCC(n2c(=O)[nH]c(=O)c3ccccc32)CC1)c1ccc(F)cc1 [Compound 2] |
| 1740 | O=c1[nH]c(=O)n(C2CCN(CCCn3c(=O)[nH]c4ccccc43)CC2)c2ccccc12 [Compound 5] |
| 1800 | O=C(c1ccc(F)cc1)C1CCN(CCn2c(=O)[nH]c(=O)c3ccccc32)CC1 [Compound 10, 1-[2-[4-(4-fluorobenzoyl)-1-piperidinyl]ethyl]-2,4-(1H,3H)-quinazolinedione] |
| 2720 | O=C(c1ccc(F)cc1)C1CCN(CCCn2c(=O)[nH]c(=O)c3ccccc32)CC1 [Compound 11, 1-[3-[4-(4-fluorobenzoyl)-1-piperidinyl]propyl]-2,4-(1H,3H)-quinazolinedione] |

| SMILES | IC50 [nM] |
| --- | --- |
| O=c1[nH]c(=O)n(C2CCNCC2)c2ccccc12 [Compound 1] | 465 |
| O=c1[nH]c(=O)n(CCN2CCC(O)(c3ccc(Cl)cc3)CC2)c2ccccc12 [Compound 6] | 1330 |
| O=c1[nH]c(=O)n(CCCN2CCC(O)(c3ccc(Cl)cc3)CC2)c2ccccc12 [Compound 7] | 3240 |
